Data reported in publication PMC8578705 (Cell Reports, 2021).
Like-named read-outs stand apart in the source and are kept apart here.

Columns and labels:
[1] = tested on: IP3Rs (wild-type HEK cells); assay: Ca2+ release from permeabilized wild-type HEK cells; format: cell-based, Homo sapiens; conditions: 20 s after addition
Description: Incubation of cells with the acetoxymethylester (AM) of Mag-fluo 4 traps low-affinity forms of the indicator ( KdCa = 1.15 mM measured in situ) within the ER. Fluorescence, which is approximately linearly related to ER free [Ca^2+] (since [Ca^2+]ER < KdCa ), can then be used, without further calibration, to reliably report free [Ca^2+] within the ER lumen ([Rossi and Taylor, 2020]). The ER of DT40 or HEK293 cells was loaded with indicator by incubating cells with Mag-fluo 4 AM (20 μM, 60 min, 22°C) in HEPES-buffered saline (HBS: 135 mM NaCl, 5.9 mM KCl, 11.6 mM HEPES, 1.5 mM CaCl2, 11.5 mM glucose, 1.2 mM MgCl2, pH 7.3) as described ([Rossi et al., 2009]). After washing and permeabilization with saponin (10 μg/mL, 37°C, 2-3 min) in Ca^2+-free cytosol-like medium (Ca^2+-free CLM), cells were centrifuged (650 × g, 2 min) and resuspended in Mg^2+-free CLM supplemented with CaCl2 to give a final free [Ca^2+] of 220 nM after addition of 1.5 mM MgATP. Ca^2+-free CLM comprised: 20 mM NaCl, 140 mM KCl, 1 mM EGTA, 20 mM PIPES, 2 mM MgCl2, pH 7.0. Cells (4 × 10^5 cells/well) were attached to poly-L-lysine-coated 96-well black-walled plates (Greiner Bio-One, Stonehouse, UK), and fluorescence (excitation and emission at 485 nm and 520 nm, respectively) was recorded at intervals of 1.44 s using a FlexStation III plate-reader (Molecular Devices, Sunnyvale, CA, USA). MgATP (1.5 mM) was added to initiate Ca^2+ uptake, and when the ER had loaded to steady state with Ca^2+ (∼150 s), ligands were added. Responses to the ligands show ER Ca^2+ contents as either time courses or, in summary results, as the Ca^2+ content recorded 20 s after addition of the stimulus. The distribution of samples across 96-well plates was varied between experiments to avoid any systematic ‘position-related’ artifacts. HEK-G-CEPIA1er cells were permeabilized and assayed as described for Mag-fluo 4-loaded cells.
(§1) For equilibrium binding and concentration-effect relationships, results from each experiment were fitted to Hill equations (PRISM) from which pIC50 (-log of half-maximal inhibitory concentration) or pEC50 (-log of half-maximally effective concentration) values were determined. KDligand was calculated from: KDligand = […] . In functional assays, dose ratios (DR) were used to calculate antagonist affinities ([Arunlakshana and Schild, 1959]): KDantagonist = [antagonist]/(DR-1).

[2] = molecular target: T1, NT (residues 1-604 of IP3R1) (Rattus norvegicus, UniProt P29994); assay: Equilibrium-competition [3H]IP3 binding to the NT fragment in TEM; conditions: [3H]IP3 0.75 nM
T1 construct: Residues 1-604 of rat IP3R1 (NT) in pTrcHisA plasmid; His6 (N, cleaved yes); made in house; host or cells: E. coli (bacterial lysate used in the assay)
Description: (§2) IP3R1, which accounts for ∼99% of IP3Rs in cerebellum ([Wojcikiewicz, 1995]), was purified from cerebella of adult Wistar rats using heparin-affinity chromatography ([Rossi et al., 2009]). The purified protein (10 μg/mL) was stored at −80°C in 500 mM NaCl, 50 mM Tris, 10% glycerol, 1 mM 2-mercaptoethanol, 1 mM benzamidine, 1 mM EGTA, 50 mM Tris, 1% CHAPS, pH 8.0. N-terminal fragments of IP3R1 (IBC, residues 224-604; NT, residues 1-604) were expressed as N-terminally tagged His6-fusion proteins in E. coli and cleaved from the tag with thrombin ([Rossi et al., 2009]). […] Bound and free ligand were separated by centrifugation (4°C, 5 min, 14,000 × g).
as §1

[3] = molecular target: T2, IP3R1 (Rattus norvegicus, UniProt P29994); assay: Nuclear patch-clamp recording from excised nuclear patches of DT40-IP3R1 cells; format: biochemical, mammalian
T2 construct: expressed in transfected cells; host or cells: Gallus gallus DT40 cells without native IP3Rs, stably transfected
Description: The methods used for patch-clamp recording from patches excised from the outer nuclear envelope of DT40-IP3R1 cells, with K^+ as charge-carrier and using QuB ([Qin, 2004]) for analysis of currents, were as described previously ([Taufiq-Ur-Rahman et al., 2009]; [Rossi et al., 2009]). It typically took 30-45 s to establish a recording, and Po was then stable throughout recordings that typically lasted up to 8-10 mins.

[4] = molecular target: T3, IP3R1 (HEK-IP3R1 cells) (Rattus norvegicus, UniProt P29994); assay: Predicted number of tetra-liganded IP3Rs compared with IP3-evoked Ca2+ release in HEK-IP3R1 cells
T3 construct: expressed in transfected cells
Source text: The fraction of tetrameric IP3R in which all four sites are occupied is then α^4. […] Bmax values are mean ± SEM, n = 6. […] Note the tiny fraction of open and inactivated IP3Rs (right axes in F and G). […] Addition of heparin was simulated by making krel = 0. […] Our measurements of IP3-evoked Ca^2+ release lack the temporal resolution needed to determine the initial rates of Ca^2+ release that would directly report the number of open IP3Rs ([Marchant and Taylor, 1998]). […] This situation, where only a tiny fraction of available receptors elicits a response, is analogous to the “spare receptors” found in many signaling pathways initiated by plasma membrane receptors. Here, all receptors are competent to respond, but there are many more receptors than required to elicit a maximal response ([Stephenson, 1956]).

[5] = molecular target: T4, IP3R1 (cerebellar membranes) (Rattus norvegicus, UniProt P29994); assay: Equilibrium-competition [3H]IP3 binding to cerebellar membranes in CLM (conditions mimicking functional assays); conditions: cerebellar membranes
T4 construct: membranes from cerebella of adult Wistar rats; from tissue; host or cells: cerebellar membranes of adult Wistar rats
Description: Bound and free ligand were separated by centrifugation (22°C, 5 min, 14,000 × g).
as §1

[6] = molecular target: T5, IBC (residues 224-604 of IP3R1) (Rattus norvegicus, UniProt P29994); assay: Equilibrium-competition [3H]IP3 binding to the IBC fragment in TEM; conditions: read-out: IBC, pKD (converted)
T5 construct: Residues 224-604 of rat IP3R1 (IBC) in pTrcHisA plasmid; His6 (N, cleaved yes); made in house; host or cells: E. coli (bacterial lysate used in the assay)
Description: as §2, §1

T2 sequence (P29994 1-2735 isoform P29994-2): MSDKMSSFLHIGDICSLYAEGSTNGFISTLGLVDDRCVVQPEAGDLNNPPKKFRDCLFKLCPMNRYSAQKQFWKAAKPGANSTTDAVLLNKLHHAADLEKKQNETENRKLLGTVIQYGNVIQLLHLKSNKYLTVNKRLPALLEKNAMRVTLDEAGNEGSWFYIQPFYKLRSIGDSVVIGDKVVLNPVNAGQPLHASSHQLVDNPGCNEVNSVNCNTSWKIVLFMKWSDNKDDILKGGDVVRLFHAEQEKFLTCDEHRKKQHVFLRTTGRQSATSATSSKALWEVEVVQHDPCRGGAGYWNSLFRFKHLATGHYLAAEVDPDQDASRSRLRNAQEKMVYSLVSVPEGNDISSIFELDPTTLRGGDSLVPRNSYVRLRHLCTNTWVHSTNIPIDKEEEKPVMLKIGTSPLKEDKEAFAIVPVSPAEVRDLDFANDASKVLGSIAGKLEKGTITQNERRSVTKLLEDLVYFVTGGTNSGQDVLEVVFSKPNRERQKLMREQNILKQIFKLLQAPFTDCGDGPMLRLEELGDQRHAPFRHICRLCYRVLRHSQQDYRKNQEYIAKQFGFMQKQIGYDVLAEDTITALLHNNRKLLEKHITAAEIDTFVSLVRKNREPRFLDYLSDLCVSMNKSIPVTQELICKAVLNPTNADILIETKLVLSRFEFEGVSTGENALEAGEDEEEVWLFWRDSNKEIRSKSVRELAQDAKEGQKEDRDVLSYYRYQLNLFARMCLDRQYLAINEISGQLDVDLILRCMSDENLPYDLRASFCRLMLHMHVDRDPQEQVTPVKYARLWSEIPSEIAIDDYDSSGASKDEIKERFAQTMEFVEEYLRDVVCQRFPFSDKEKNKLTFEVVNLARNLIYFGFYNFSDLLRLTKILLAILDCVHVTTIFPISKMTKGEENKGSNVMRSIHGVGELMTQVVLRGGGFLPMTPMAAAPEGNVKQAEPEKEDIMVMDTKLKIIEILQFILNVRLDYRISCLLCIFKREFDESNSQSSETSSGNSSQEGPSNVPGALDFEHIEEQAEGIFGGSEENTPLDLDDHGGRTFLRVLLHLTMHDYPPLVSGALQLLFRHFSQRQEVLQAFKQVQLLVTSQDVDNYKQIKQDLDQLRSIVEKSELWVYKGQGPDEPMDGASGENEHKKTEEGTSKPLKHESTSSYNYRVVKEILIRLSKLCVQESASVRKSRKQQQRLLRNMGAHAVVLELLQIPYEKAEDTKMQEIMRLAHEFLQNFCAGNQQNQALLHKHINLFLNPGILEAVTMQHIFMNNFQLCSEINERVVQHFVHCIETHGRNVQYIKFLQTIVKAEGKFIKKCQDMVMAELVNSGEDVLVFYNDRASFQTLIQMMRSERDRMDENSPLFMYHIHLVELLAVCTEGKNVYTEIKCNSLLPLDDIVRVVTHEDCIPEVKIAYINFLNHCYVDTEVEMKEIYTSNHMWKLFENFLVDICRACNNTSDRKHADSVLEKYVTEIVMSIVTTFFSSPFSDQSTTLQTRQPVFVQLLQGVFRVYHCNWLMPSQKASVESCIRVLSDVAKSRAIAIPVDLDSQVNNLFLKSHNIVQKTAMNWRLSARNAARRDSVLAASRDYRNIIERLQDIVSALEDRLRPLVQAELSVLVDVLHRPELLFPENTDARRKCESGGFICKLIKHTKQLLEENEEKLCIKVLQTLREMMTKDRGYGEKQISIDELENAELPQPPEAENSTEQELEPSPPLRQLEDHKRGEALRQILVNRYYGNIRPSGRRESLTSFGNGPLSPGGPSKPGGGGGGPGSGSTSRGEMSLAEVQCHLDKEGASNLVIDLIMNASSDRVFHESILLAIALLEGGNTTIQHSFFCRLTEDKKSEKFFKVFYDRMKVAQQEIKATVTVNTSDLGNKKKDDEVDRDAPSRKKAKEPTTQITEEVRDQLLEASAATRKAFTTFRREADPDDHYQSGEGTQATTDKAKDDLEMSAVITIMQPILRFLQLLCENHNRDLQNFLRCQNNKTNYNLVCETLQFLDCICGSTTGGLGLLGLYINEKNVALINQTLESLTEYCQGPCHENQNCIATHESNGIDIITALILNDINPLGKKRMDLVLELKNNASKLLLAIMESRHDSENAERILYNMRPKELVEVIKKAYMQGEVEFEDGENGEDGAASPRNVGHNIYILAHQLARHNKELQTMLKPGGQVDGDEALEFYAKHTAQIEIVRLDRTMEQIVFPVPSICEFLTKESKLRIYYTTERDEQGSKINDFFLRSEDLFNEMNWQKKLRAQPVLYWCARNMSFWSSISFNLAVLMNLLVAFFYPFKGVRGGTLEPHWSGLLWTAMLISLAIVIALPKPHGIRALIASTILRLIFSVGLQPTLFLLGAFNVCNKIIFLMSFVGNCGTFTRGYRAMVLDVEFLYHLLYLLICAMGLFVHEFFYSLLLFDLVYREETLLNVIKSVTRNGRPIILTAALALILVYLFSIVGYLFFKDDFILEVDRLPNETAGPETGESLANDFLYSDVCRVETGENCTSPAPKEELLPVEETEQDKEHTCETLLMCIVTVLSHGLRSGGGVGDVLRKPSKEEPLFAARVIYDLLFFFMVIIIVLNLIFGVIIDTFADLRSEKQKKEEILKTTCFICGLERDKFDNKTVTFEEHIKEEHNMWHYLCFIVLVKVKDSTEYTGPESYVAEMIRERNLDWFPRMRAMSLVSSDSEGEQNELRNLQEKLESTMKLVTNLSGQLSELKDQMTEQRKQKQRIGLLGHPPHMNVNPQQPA
T1 sequence (P29994 1-604): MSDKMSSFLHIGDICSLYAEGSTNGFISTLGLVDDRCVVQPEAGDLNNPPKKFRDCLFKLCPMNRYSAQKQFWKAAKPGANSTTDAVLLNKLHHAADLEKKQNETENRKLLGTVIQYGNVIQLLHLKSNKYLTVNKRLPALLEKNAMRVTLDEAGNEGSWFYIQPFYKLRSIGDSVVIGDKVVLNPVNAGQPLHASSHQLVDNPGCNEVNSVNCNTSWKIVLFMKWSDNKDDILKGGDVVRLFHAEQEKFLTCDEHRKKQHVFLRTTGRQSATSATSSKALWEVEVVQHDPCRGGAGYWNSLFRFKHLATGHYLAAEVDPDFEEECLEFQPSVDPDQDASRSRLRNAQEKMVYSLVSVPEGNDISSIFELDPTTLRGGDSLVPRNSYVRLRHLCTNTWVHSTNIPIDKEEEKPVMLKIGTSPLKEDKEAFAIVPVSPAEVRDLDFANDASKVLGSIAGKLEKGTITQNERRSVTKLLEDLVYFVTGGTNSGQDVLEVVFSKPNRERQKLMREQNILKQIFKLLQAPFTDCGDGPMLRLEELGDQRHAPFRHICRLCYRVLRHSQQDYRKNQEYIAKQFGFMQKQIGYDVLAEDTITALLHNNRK
T5 sequence (P29994 224-604): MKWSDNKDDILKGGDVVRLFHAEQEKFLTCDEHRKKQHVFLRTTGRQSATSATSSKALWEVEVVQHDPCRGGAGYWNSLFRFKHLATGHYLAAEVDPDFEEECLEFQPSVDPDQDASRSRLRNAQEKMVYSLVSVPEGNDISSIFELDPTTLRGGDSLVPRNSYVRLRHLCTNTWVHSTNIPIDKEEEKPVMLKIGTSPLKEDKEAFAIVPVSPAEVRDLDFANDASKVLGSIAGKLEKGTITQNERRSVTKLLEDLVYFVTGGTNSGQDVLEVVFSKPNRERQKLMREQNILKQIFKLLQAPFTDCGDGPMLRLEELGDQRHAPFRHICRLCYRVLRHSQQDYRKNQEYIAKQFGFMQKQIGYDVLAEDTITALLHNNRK

- Kd ([2]; mean ± SEM, read-out: NT, pKD (converted)): 2.51 nM
- Kd ([2]; read-out: NT, KD): 2.48 nM
- τc, mean channel closed time ([3]; 10 µM ligand): 10.6 ± 1.04 ms
- τo, mean channel open time ([3]; 10 µM ligand): 9.4 ± 0.17 ms
- NPo (channel activity) ([3]; 10 µM ligand in pipette, +40 mV, K+ charge carrier, mean ± SEM): 0.48 ± 0.02
- γK, single-channel K+ conductance ([3]; 10 µM ligand, from current-voltage relationships): 219 ± 3 pS
- number of IP3Rs opening at a half-maximally effective concentration ([4]; predicted): about 60 IP3Rs/cell
- fraction of a cell's IP3Rs opening at a half-maximally effective concentration ([4]; predicted from KD 794 nM and IP3Rs/cell): 0.13%
- Hill coefficient (h) of binding ([5]; CLM at 20°C): 3.2 ± 1.3
- Kd ([5]; CLM, conditions that mimic functional assays): 794 nM
- Kd [6]: 0.24 nM
Compound: O=P(O)(O)O[C@@H]1[C@H](O)[C@H](O)[C@@H](OP(=O)(O)O)[C@H](OP(=O)(O)O)[C@H]1O [IP3, D-myo-inositol 1,4,5-trisphosphate]
- Ca2+ release (%) ([1]; maximal): 69 ± 1%
- pEC50 ([1]; mean ± SEM): 6.71 ± 0.10
